The values below come from publication PMC6214715 (Journal of veterinary pharmacology and therapeutics, 2018).

Where two headings read alike, the source gives them in different places.

A word on the Km: it is the substrate concentration at which the rate is half of its maximum.

For one data set, the system named is dog liver microsomes. In kind it is in vitro ADME. The following applies: for Km / Vmax: formation of (+)-M5 from substrate.
The next data set relates to human liver microsomes. In kind it is in vitro ADME. The following applies: pooled human liver microsomes (n = 48); (+)-M1 at 10 μM, (+)-M2 at 0.5 μM.
In the next data set the test system is cat liver microsomes. It is filed as in vitro ADME. The following applies: pooled cat liver microsomes (n = 16); (+)-M1 at 10 μM, (+)-M2 at 0.5 μM. On the technique in general: Liver microsomes are vesicles of endoplasmic reticulum, rich in cytochrome P450 enzymes.
For another data set, the target named is T1, CYP2C41 (Canis lupus familiaris, UniProt O62671).
T1 sequence (O62671 1-489): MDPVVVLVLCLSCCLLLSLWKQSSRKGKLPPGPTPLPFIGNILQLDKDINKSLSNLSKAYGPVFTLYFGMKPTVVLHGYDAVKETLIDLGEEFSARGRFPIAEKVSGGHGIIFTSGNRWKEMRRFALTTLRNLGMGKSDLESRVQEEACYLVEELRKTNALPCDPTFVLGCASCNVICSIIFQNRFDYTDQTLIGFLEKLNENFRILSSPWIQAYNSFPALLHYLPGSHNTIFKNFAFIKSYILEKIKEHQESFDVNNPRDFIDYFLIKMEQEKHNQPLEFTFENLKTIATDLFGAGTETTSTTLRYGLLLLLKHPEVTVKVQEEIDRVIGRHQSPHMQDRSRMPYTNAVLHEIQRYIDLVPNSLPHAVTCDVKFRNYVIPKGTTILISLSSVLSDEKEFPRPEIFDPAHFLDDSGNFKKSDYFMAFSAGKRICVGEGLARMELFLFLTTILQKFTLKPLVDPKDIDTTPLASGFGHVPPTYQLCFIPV
It is filed as in vitro ADME, canine. The note with it: recombinant CYP2C41; (+)-M1 10 μM, (+)-M2 0.5 μM.

For the next data set, the target named is T2, CYP2B11 (Canis lupus familiaris, UniProt P24460).
T2 sequence (P24460 1-494): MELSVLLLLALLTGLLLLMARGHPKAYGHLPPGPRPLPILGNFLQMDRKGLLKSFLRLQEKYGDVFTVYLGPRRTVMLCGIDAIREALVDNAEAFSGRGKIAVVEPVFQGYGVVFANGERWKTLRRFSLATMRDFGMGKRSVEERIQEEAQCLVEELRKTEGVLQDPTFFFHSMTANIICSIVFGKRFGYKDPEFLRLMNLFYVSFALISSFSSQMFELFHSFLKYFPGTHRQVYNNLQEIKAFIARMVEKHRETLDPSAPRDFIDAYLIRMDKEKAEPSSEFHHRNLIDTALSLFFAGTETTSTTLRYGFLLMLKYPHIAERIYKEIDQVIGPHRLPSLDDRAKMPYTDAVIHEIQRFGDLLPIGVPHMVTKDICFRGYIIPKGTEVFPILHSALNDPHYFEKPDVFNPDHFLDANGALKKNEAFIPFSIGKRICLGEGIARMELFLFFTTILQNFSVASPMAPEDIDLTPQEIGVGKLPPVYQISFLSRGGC
In kind it is in vitro ADME, canine. The note with it: recombinant CYP2B11; (+)-M1 10 μM, (+)-M2 0.5 μM.

The target of the next data set is CYP3A12 (Canis lupus familiaris, UniProt P24463). In kind it is in vitro ADME, canine. The note with it: recombinant CYP3A12; (+)-M1 10 μM, (+)-M2 0.5 μM.
Another data set deals with T3, CYP1A1 (Canis lupus familiaris, UniProt P56590).
T3 sequence (P56590 1-524): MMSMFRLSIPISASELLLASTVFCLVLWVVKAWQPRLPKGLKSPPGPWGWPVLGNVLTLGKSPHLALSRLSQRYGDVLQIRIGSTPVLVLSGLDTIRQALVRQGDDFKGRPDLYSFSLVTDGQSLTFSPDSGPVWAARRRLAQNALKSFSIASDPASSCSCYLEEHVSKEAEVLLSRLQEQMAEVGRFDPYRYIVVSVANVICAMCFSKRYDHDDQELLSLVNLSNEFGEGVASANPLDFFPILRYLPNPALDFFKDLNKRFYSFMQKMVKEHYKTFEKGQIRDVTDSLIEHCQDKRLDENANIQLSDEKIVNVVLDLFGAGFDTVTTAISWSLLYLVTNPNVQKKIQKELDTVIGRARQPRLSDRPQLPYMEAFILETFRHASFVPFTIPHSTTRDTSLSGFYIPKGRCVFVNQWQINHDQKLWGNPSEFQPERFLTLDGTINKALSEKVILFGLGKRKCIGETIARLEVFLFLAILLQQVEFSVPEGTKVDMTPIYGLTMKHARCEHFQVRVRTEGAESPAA
In kind it is in vitro ADME, canine. The note with it: recombinant CYP1A1; (+)-M1 10 μM, (+)-M2 0.5 μM.

The target of another data set is T4, CYP1A2 (Canis lupus familiaris, UniProt P56592).
T4 sequence (P56592 1-512): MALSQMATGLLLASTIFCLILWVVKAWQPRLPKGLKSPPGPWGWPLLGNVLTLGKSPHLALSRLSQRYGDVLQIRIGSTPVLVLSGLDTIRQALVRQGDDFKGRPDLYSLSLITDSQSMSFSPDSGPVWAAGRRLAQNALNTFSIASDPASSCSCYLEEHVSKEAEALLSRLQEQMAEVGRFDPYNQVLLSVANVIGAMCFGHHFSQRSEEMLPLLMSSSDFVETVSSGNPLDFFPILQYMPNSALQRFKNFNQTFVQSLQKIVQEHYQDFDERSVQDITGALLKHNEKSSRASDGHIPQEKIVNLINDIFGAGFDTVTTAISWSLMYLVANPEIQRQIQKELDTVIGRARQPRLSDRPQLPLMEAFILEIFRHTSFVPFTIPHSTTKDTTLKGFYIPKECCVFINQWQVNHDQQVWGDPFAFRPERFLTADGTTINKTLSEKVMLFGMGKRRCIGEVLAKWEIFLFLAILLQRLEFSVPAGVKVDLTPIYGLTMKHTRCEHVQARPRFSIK
It is filed as in vitro ADME, canine. The note with it: recombinant CYP1A2; (+)-M1 10 μM, (+)-M2 0.5 μM.

CYP3A12, sequence (P24463 whole entry): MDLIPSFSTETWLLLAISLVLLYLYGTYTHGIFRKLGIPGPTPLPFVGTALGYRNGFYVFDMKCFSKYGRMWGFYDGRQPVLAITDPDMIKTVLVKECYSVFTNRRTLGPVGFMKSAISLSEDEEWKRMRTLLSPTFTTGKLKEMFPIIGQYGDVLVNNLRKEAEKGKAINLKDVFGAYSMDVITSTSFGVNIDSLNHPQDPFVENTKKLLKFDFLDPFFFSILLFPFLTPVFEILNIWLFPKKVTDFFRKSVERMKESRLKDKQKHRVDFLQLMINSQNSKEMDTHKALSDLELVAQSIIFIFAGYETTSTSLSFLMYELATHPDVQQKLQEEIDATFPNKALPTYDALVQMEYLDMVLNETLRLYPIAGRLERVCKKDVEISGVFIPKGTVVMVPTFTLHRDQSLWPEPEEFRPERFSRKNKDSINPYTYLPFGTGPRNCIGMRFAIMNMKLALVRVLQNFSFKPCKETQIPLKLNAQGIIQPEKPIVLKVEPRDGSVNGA

For the compound `CN(C)CC1CCCCC1(O)c1cccc(O)c1.Cl` (single isomer, unassigned; (+)) [(+)-M1, (+)-O-desmethyltramadol hydrochloride], the Km in the data set on dog liver microsomes (Dog 10 liver microsomes) was determined as 158 µM; with dog liver microsomes (Dog 31 liver microsomes), 64 µM; in the data set on dog liver microsomes (Dog 46 liver microsomes), 108 µM; in the data set on dog liver microsomes (pDLM (liver microsomes pooled from 59 dogs)) it was 112 µM. Besides, the Vmax with dog liver microsomes (Dog 10 liver microsomes) was 63 pmol/min/mg protein; in the data set on dog liver microsomes (Dog 31 liver microsomes), 67 pmol/min/mg protein; in the data set on dog liver microsomes (Dog 46 liver microsomes) it was 94 pmol/min/mg protein; with dog liver microsomes (pDLM (pooled from 59 dogs)), 61 pmol/min/mg protein. The “(+)-M5 formation rate (in words)” value in the data set on dog liver microsomes (pooled dog liver microsomes (n = 59), (+)-M1 at 10 μM, (+)-M2 at 0.5 μM) is “highest activities”; with human liver microsomes, “low activities”; in the data set on cat liver microsomes it was “low activities”. Also, the “formation rate of (+)-M5 (in words)” value is reported as “somewhat lower activities” on CYP2C41; “somewhat lower activities” at CYP2B11; “only very low activities” at CYP3A12; “only very low activities” at CYP1A1; “only very low activities” at CYP1A2.
